Consider 13 molecules from patent publication US3948911A, “Substituted quinoxaline-2-carboxamide 1,4-dioxides” (Pfizer Inc., priority 1974, dated 1976).

Assay [1] has as its system Strep. pyogenes. As to the kind of experiment: in vitro antibacterial activity, two-fold serial dilution in Brain-Heart Infusion Broth, MIC. It is filed as cell-based. As to conditions: overnight, anaerobic; for MIC: Streptococcus pyogenes. Here is the method: (§1) The broth is inoculated with bacteria and with the test quinoxaline-1,4-dioxide and then it is incubated overnight under anerobic conditions. On the next day, the test is read visually. The minimum inhibitory concentration (MIC) of the test compound is the lowest concentration which prevents turbidity, i.e., which prevents growth of the microorganism.
(§2) In vitro and in vivo activity of representative compounds of this invention, determined as aforesaid, are reported in the following tabulation for compounds of the formula: ##SPC3##

Assay [2] deals with E. coli. Described as above. It counts as cell-based. As to conditions: for MIC: Escherichia coli, read-out: IN VITRO MIC E. coli. The protocol:
as §1, §2

In assay [3] the test system is Strep. pyogenes. As to the kind of experiment: in vivo activity in mice infected with a lethal inoculum, survivors. The conditions noted are these: for IN VIVO Survivors (PO) Strep. pyogenes / IN VIVO Survivors-SC Strep. pyogenes / responders at 50 mg/kg: 50 mg./kg., survivors/treated mice; for responders at 100 mg/kg / responders at 50 mg/kg: Streptococcus pyogenes; for responders at 100 mg/kg: footnote (c): dosage = 100 mg./kg. Here is the method:
(§3) In determining in vivo activity of the quinoxaline-1,4-dioxides of this invention, the test compound is administered to mice which have been infected by […] injection of a lethal inoculum of pathogenic bacteria. The test compound is administered using a multiple dosing regimen and using either the oral (PO) or the subcutaneous (SC) route. The inoculum of bacteria varies from about 1 to about 10 times the amount needed to kill 100% of the mice under the conditions of the test. At the end of the test, the activity of the compound is assessed by counting the number of survivors among the treated animals.
as §2

Assay [4] deals with E. coli. The assay is described as above. As to conditions: for IN VIVO Survivors-SC E. coli / responders at 25 mg/kg: subcutaneous; for IN VIVO Survivors-SC E. coli / responders at 25 mg/kg / IN VIVO Survivors (PO) E. coli: 25 mg./kg., survivors/treated mice. The protocol: as §3, §2
The mark [5] stands for this setting: Brain-Heart Infusion Broth, overnight, anaerobic.
[6] abbreviates: sc, subcutaneous, read-out: IN VIVO Survivors-SC Strep. pyogenes (converted).
[7] abbreviates: oral, read-out: IN VIVO Survivors (PO) Strep. pyogenes (converted).

Values after ≈ are worked out from the molar mass of the structure shown. Like-named read-outs stand apart in the source and are kept apart here.

As to “6-(7)-Formyl-N-(2-Hydroxyethyl)-3-Methyl-2-Quinoxalinecarboxamide 1,4-Dioxide Ethylene Acetal [NHCH2 CH2 OH 6(7)-OO.angle.C.angle.H CH3]”, in the assay on Strep. pyogenes [1], the “IN VITRO MIC Strep. pyogenes” value amounted to 0.781 µg/mL. The “IN VITRO MIC E. coli” value in the assay on E. coli [2] (setting [5]) is 25 µg/mL. In the assay with Strep. pyogenes [3] (oral), the “IN VIVO Survivors (PO) Strep. pyogenes” value is given as 3/10. In the assay on Strep. pyogenes [3] (subcutaneous), the “IN VIVO Survivors-SC Strep. pyogenes” value is 2/10. For the same molecule, in the assay with E. coli [4], the “IN VIVO Survivors-SC E. coli” value was 3/10.

Broadly, the MIC is the lowest concentration found to suppress growth. For the molecule `CC(=O)c1ccc2c(c1)[n+]([O-])c(C)c(C(=O)N(C)C)[n+]2[O-]` [N(CH3)2 6-COCH3 CH3], the MIC against Strep. pyogenes [1] and in the assay with E. coli [2] was 6.25 µg/mL (≈ 21.6 µM) throughout. For the same molecule, the responders at 100 mg/kg was 60% in the assay with Strep. pyogenes [3] (sc, subcutaneous, read-out: IN VIVO Survivors-SC Strep. pyogenes) and 50% in the assay on Strep. pyogenes [3] (oral, read-out: IN VIVO Survivors (PO) Strep. pyogenes). The same molecule showed a responders at 25 mg/kg with E. coli [4] (Escherichia coli, sc) of 20%. Besides, the “IN VIVO Survivors (PO) E. coli” value with E. coli [4] is reported as 0/5.

Consider `CC(=O)c1ccc2c(c1)[n+]([O-])c(C(=O)N(C)C)c(C)[n+]2[O-]` [N(CH3)2 7-COCH3 CH3], for which the MIC in the assay with Strep. pyogenes [1] and in the assay with E. coli [2] (setting [5]) was 6.25 µg/mL (≈ 21.6 µM) in each case. The responders at 50 mg/kg in the assay on Strep. pyogenes [3] (setting [6]) is 60%; with Strep. pyogenes [3] (setting [7]), 20%. In addition, in the assay with E. coli [4] (Escherichia coli, sc), the responders at 25 mg/kg is 0%.

As for `CC(=O)c1ccc2c(c1)[n+]([O-])c(C)c(C(N)=O)[n+]2[O-]` [NH2 6-COCH3 CH3, 6- and 7-Acetyl-3-Methyl-2-Quinoxalinecarboxamide 1,4-dioxide], the MIC in the assay with Strep. pyogenes [1] and in the assay with E. coli [2] (setting [5]) was under 0.391 µg/mL in each case. The figures for the responders at 50 mg/kg in the assay with Strep. pyogenes [3] (setting [6]) and in the assay on Strep. pyogenes [3] (setting [7]) were 100% and 90%, respectively. The same molecule had a responders at 25 mg/kg in the assay with E. coli [4] (Escherichia coli, sc) of 100%. Besides, the “IN VIVO Survivors (PO) E. coli” value with E. coli [4] is given as 5/5.

On to `CC(=O)c1ccc2c(c1)[n+]([O-])c(C(N)=O)c(C)[n+]2[O-]` [NH2 7-COCH3 CH3, 6- and 7-Acetyl-3-Methyl-2-Quinoxalinecarboxamide 1,4-dioxide], for which the minimal inhibitory concentration (MIC) in the assay with Strep. pyogenes [1] is 0.391 µg/mL (≈ 1.5 µM); in the assay on E. coli [2] (setting [5]), under 0.391 µg/mL. Also, the values for the responders at 50 mg/kg in the assay on Strep. pyogenes [3] (setting [6]) and in the assay with Strep. pyogenes [3] (setting [7]) were 100% and 80%, respectively. Besides, the responders at 25 mg/kg with E. coli [4] (Escherichia coli, sc) was 100%.

For `Cc1c(C(N)=O)[n+]([O-])c2cc(C3(C)OCCO3)ccc2[n+]1[O-]` [NH2 7-OO.angle.C.angle.CH3 CH3], the MIC with Strep. pyogenes [1] and with E. coli [2] (setting [5]) was 12.5 µg/mL (≈ 40.9 µM) each time. For the same molecule, the responders at 50 mg/kg with Strep. pyogenes [3] (setting [6]) and with Strep. pyogenes [3] (setting [7]) was 80% in each case. In the assay with E. coli [4] (Escherichia coli, sc), this molecule gave a responders at 25 mg/kg of 100%. Further, the “IN VIVO Survivors (PO) E. coli” value in the assay on E. coli [4] is on record as 3/5.

In the case of `CC(=O)c1ccc2c(c1)[n+]([O-])c(C)c(C(=O)NCCO)[n+]2[O-]` [NHCH2 CH2 OH 6-COCH3 CH3], the MIC against Strep. pyogenes [1] and in the assay on E. coli [2] (setting [5]) was under 0.391 µg/mL in each case. In addition, the responders at 50 mg/kg is 50% in the assay on Strep. pyogenes [3] (setting [6]) and 20% in the assay on Strep. pyogenes [3] (setting [7]). In addition, the responders at 100 mg/kg in the assay on E. coli [4] (Escherichia coli, sc, read-out: IN VIVO Survivors-SC E. coli) was 30%.

In the case of `CNC(=O)c1c(C)[n+]([O-])c2cc(C(C)=O)ccc2[n+]1[O-]` [NHCH3 6-COCH3 CH3], the results for the MIC against Strep. pyogenes [1] and in the assay on E. coli [2] (setting [5]) were 0.781 µg/mL (≈ 2.84 µM) and under 0.391 µg/mL, respectively. Also, the responders at 50 mg/kg in the assay on Strep. pyogenes [3] (setting [6]) is 60%; in the assay with Strep. pyogenes [3] (setting [7]), 40%. The responders at 25 mg/kg in the assay with E. coli [4] (Escherichia coli, sc) is 80%. Further, in the assay on E. coli [4], the “IN VIVO Survivors (PO) E. coli” value is 7/10.

With `CNC(=O)c1c(C)[n+]([O-])c2ccc(CO)cc2[n+]1[O-]` [NHCH3 7-CH2 OH CH3], the MIC is over 200 µg/mL with Strep. pyogenes [1] and 6.25 µg/mL (≈ 23.7 µM) with E. coli [2] (setting [5]). The results for the responders at 50 mg/kg in the assay on Strep. pyogenes [3] (setting [6]) and in the assay with Strep. pyogenes [3] (setting [7]) were 20% and 10%, respectively. This molecule gave a responders at 25 mg/kg in the assay with E. coli [4] (Escherichia coli, sc) of 90%.

`CNC(=O)c1c(C)[n+]([O-])c2ccc(C(C)=O)cc2[n+]1[O-]` [NHCH3 7-COCH3 CH3]: the minimal inhibitory concentration (MIC) in the assay on Strep. pyogenes [1] and with E. coli [2] (setting [5]) was 0.391 µg/mL (≈ 1.42 µM) throughout. The responders at 50 mg/kg is 50% in the assay with Strep. pyogenes [3] (setting [6]) and 90% in the assay on Strep. pyogenes [3] (setting [7]). For the same molecule, the responders at 25 mg/kg with E. coli [4] (Escherichia coli, sc) was 60%.

In the case of “Ethyl 6(7)-Hydroxymethyl-3-Methyl-2-Quinoxaline-Carboxylate 1,4-Dioxide [OCH2 CH3 6(7)-CH2 OH CH3]”, the “IN VITRO MIC Strep. pyogenes” value in the assay on Strep. pyogenes [1] stood at 25 µg/mL. Further, the “IN VITRO MIC E. coli” value in the assay on E. coli [2] (setting [5]) came to 25 µg/mL. Moreover, the “IN VIVO Survivors (PO) Strep. pyogenes” value with Strep. pyogenes [3] (oral) is 5/10. For the same molecule, the “IN VIVO Survivors-SC Strep. pyogenes” value with Strep. pyogenes [3] (subcutaneous) is given as 6/10. Besides, the “IN VIVO Survivors-SC E. coli” value with E. coli [4] is 4/10.

As for “N,3-Dimethyl-6(7)-Hydroxymethyl-2-Quinoxalinecarboxamide 1,4-Dioxide [NHCH3 6(7)-CH2 OH CH3]”, the “IN VITRO MIC Strep. pyogenes” value in the assay on Strep. pyogenes [1] was determined as 50 µg/mL. The “IN VITRO MIC E. coli” value with E. coli [2] (setting [5]) was 25 µg/mL. The “IN VIVO Survivors (PO) Strep. pyogenes” value in the assay on Strep. pyogenes [3] (oral) is on record as 3/10. In addition, the “IN VIVO Survivors-SC Strep. pyogenes” value in the assay on Strep. pyogenes [3] (subcutaneous) is reported as 3/10. Further, the “IN VIVO Survivors-SC E. coli” value with E. coli [4] was 8/10.

On to “N-Methyl-6(7)-Hydroxymethyl-2-Quinoxalinecarboxamide 1,4-Dioxide [NHCH3 6(7)-CH2 OH H]”, for which, in the assay on Strep. pyogenes [1], the “IN VITRO MIC Strep. pyogenes” value stood at 0.781 µg/mL. In the assay on E. coli [2] (setting [5]), the “IN VITRO MIC E. coli” value came to 1.562 µg/mL. In addition, in the assay on Strep. pyogenes [3] (oral), the “IN VIVO Survivors (PO) Strep. pyogenes” value is on record as 6/10. Besides, in the assay with Strep. pyogenes [3] (subcutaneous), the “IN VIVO Survivors-SC Strep. pyogenes” value is 10/10. The “IN VIVO Survivors-SC E. coli” value in the assay on E. coli [4] was 4/10.
